This is an account of results in ChEMBL document CHEMBL1240362, “Intrapulmonary pharmacokinetics of S-013420, a novel bicyclolide antibacterial, in healthy Japanese subjects” (Antimicrob Agents Chemother, 2010).

What all share (format): functional
One assay has as its system Streptococcus pneumoniae. The assay can be described thus: Antimicrobial activity against Streptococcus pneumoniae.
Another assay has as its system Staphylococcus aureus. Kind of assay: Antimicrobial activity against methicillin susceptible Staphylococcus aureus.
Another assay relates to Streptococcus pyogenes. Kind of assay: Antimicrobial activity against Streptococcus pyogenes.
For the next assay, the system named is Haemophilus influenzae. Kind of assay: Antimicrobial activity against Haemophilus influenzae.

Structures are written as SMILES. ≈ marks a conversion by molar mass, not a printed value.

In the case of `CC[C@H]1OC(=O)[C@H](C)[C@@H](O[C@H]2C[C@@](C)(OC)[C@@H](O)[C@H](C)O2)[C@H](C)[C@@H](O[C@@H]2O[C@H](C)C[C@H](N(C)C)[C@H]2O)[C@](C)(OC)C[C@@H](C)C(=O)[C@H](C)[C@@H](O)[C@]1(C)O` [CLARITHROMYCIN], the MIC90 in the assay on Streptococcus pneumoniae (Streptococcus pneumoniae, read-out: MIC90) came out at 1 µg/mL (≈ 1.34 µM); in the assay on Staphylococcus aureus, 1 µg/mL (≈ 1.34 µM); against Streptococcus pyogenes it was 1 µg/mL (≈ 1.34 µM).

Turning to `CC[C@H]1OC(=O)[C@H](C)[C@@H](O[C@H]2C[C@@](C)(OC)[C@@H](O)[C@H](C)O2)[C@H](C)[C@@H](O[C@@H]2O[C@H](C)C[C@H](N(C)C)[C@H]2O)[C@](C)(O)C[C@@H](C)CN(C)[C@H](C)[C@@H](O)[C@]1(C)O` [AZITHROMYCIN], the MIC90 with Streptococcus pneumoniae, in the assay on Staphylococcus aureus and in the assay on Streptococcus pyogenes was 1 µg/mL (≈ 1.34 µM) each time.

In the case of `CC[C@H]1OC(=O)[C@H](C)C(=O)[C@H](C)[C@@H](O[C@@H]2O[C@H](C)C[C@H](N(C)C)[C@H]2O)[C@](C)(OC)C[C@@H](C)C(=O)[C@H](C)[C@H]2N(CCCCn3cnc(-c4cccnc4)c3)C(=O)O[C@]12C` [TELITHROMYCIN], in the assay on Haemophilus influenzae, the MIC90 amounted to 4 µg/mL (≈ 4.93 µM).
